Values of other authors, collected in patent US8962594B2, “Method of using nutritional compounds dihydroquercetin (taxifolin) and arabinogalactan in combination with dihydroquercetin (taxifolin) to reduce and control cardiometabolic risk factors associated with metabolic syndrome and hypercholesterolemia” (Flavitpure, Inc., priority 2012, dated 2015).

Tests used:
[1] = tested on: PPARa; details: supplementation of HepG2 cells
[2] = tested on: RBCs; details: pre-incubation of RBCs with water-soluble compound for 30 min; remaining hemolysis
[3] = tested on: rats; details: rats treated with high levels for long periods of time
[4] = tested on: apolipoprotein A-I (apoA-I); details: pulse-chase, HepG2 cells
[5] = tested on: apolipoprotein B (apoB)
[6] = tested on: RBCs; details: remaining hemolysis; vehicle 75.7±5.2%, P<0.001
[7] = tested on: diacylglycerol acyltransferase (DGAT); details: non-competitive
[8] = tested on: CNS-derived mouse HT22 cells; details: read-out: EC50 for protection of HT22 cells from a similar insult
[9] = tested on: RGC-5 cells; details: read-out: EC50 for protection of RGC-5 cells from oxidative stress induced by GSH depletion
[10] = tested on: microsomal TG synthesis
[11] = tested on: Glutathione prexidase (GPx); details: 25 and 50 μM
[12] = tested on: DGAT-2 mRNA
[13] = tested on: DGAT-1 mRNA
[14] = tested on: HepG2 cells; details: 200 umol, within 24 h
[15] = biological target: T1, HMG-CoA reductase (Homo sapiens, UniProt P04035)
T1 construct: endogenous in cells; host or cells: HepG2
T1 sequence (P04035 1-888): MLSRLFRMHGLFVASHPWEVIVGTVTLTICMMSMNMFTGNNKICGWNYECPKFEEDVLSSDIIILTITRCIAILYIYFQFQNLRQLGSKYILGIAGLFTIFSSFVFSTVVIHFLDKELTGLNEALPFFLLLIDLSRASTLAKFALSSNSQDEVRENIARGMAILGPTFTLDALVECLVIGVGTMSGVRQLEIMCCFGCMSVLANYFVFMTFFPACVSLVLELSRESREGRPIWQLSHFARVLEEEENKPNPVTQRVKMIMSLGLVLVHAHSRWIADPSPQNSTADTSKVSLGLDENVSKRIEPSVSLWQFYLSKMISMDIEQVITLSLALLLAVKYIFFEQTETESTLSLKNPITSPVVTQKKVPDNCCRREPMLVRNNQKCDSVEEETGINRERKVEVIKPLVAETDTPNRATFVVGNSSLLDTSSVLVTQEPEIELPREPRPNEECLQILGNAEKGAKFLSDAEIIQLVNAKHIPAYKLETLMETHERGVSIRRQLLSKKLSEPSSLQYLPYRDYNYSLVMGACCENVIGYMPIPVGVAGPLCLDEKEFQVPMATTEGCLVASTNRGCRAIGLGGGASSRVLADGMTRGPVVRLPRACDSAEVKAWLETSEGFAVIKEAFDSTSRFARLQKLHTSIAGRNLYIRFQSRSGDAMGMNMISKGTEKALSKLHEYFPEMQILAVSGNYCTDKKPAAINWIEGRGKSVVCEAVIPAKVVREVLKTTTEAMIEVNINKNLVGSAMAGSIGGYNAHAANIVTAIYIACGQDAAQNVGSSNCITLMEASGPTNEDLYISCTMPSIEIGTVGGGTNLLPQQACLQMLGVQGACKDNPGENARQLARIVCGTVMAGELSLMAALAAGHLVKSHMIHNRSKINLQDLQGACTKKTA

[16] = biological target: T2, microsomal triglyceride transfer protein (MTP) (Homo sapiens, UniProt P55157)
T2 construct: endogenous in cells; host or cells: HepG2
T2 sequence (P55157 19-894): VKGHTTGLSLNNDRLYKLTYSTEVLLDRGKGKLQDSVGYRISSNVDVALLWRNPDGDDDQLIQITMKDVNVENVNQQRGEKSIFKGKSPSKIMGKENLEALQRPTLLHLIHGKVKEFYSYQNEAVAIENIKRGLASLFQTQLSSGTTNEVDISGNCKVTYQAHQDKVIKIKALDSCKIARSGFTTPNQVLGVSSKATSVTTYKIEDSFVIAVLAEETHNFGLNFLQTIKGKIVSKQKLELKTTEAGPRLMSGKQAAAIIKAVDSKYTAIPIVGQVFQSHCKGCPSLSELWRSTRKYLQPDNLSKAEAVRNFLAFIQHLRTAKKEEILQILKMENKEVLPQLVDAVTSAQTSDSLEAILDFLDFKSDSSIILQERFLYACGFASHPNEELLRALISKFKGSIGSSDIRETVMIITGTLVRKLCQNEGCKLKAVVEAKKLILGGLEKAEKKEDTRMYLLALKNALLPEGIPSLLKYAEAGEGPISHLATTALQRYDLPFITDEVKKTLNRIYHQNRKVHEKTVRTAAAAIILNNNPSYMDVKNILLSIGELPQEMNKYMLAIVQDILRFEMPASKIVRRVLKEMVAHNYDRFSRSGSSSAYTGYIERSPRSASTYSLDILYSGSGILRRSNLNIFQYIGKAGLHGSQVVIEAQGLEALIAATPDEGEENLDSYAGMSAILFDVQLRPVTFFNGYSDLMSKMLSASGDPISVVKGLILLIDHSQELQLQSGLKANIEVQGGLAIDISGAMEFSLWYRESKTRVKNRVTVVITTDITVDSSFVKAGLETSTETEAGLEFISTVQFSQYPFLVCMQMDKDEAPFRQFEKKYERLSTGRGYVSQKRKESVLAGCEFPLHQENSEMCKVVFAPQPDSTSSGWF

[17] = tested on: IL-1β; details: LPS-stimulated PBMC, pre-treated
[18] = tested on: TNF-α; details: LPS-stimulated PBMC, pre-treated

| SMILES | PPARa expression [1] | peroxyl radical (AAPH)-induced hemolysis reduced to [2] [%] | toxic effects [3] | increase of ApoA-I secretion [4] | reduction of apoB secretion ([5]; basal and lipid-rich conditions, 200 micromol/L) | average reduction in labeled apoB in the medium ([5]; pulse-chase, HepG2 cells) | phospholipase C-induced hemolysis [6] [%] | decrease in DGAT activity (change) [7] [%] | EC50 [8] [µM] | EC50 [9] [µM] | TG transfer into the microsomal lumen (change) [10] [%] | inhibition of microsomal TG synthesis [10] [%] | Glutathione prexidase (GPx) protein level [11] | DGAT-2 mRNA expression [12] | DGAT-1 mRNA expression [13] | inhibition of cholesterol synthesis [14] | inhibition of HMG-CoA reductase activity [15] | inhibition of MTP [16] [%] | inhibition of IL-1β secretion [17] [%] | mean inhibition of the secretion of TNF-α [18] [%] |
| --- | --- | --- | --- | --- | --- | --- | --- | --- | --- | --- | --- | --- | --- | --- | --- | --- | --- | --- | --- | --- |
| O=C1c2c(O)cc(O)cc2OC(c2ccc(O)c(O)c2)C1O (racemic) [Dihydroquercetin (taxifolin)] | increase | 32.5±5.6 | No toxic effects | 36+−10% | up to 63% | 61+−8% | 45.4±10.0 | −35 | > 50 | 30 | −26 | 37 | significantly increased | essentially unchanged | essentially unchanged | 86+−3% | 47+−7% | 41 |  |  |
| O=C(O)Cc1ccc(O)c(O)c1 [3,4-DHPAA, 3,4-dihydroxyphenylacetic acid] |  |  |  |  |  |  |  |  |  |  |  |  |  |  |  |  |  |  | 97.9 | 86.4 |
